Test results from a melting point compilation (Tetko et al.; mined from patent text by program, amines drawn as free bases though some values may be those of a salt).

Row | Compound | melting point [°C]
1 | COc1cc2nc(C(C)(C)C)sc2cc1NC(=S)N1CCN(CCO)CC1 | 161 to 162
2 | CC1(OCCN(Cc2ccccc2)C(=O)C(F)(F)F)C=CC=C([N+](=O)[O-])C1NC(=O)C(F)(F)F (stereo not drawn) | 90 to 92.5
3 | CN(C=O)CNC(=O)c1snc(Cl)c1Cl | 87 to 88
4 | CC(C)CNC(=O)c1ccc(C(=O)N2CCC[C@@H]3CCCC[C@H]32)cc1N (relative stereo) | 153 to 155
5 | Nc1sc2c(c1C(=O)c1ccc(Cl)cc1)CCN(Cc1ccccc1)C2 | 155 to 157
6 | N#CCCc1ccnc(-c2nc(=O)c3ccccc3s2)c1 | 178 to 179
7 | CN1CCCCC1CCc1ccccc1NC(=O)c1ccc(OC(C)(C)C)cc1 (stereo not drawn) | 91 to 93.5
8 | c1ccc(C2=NNC(c3ccccc3)C2)cc1 (stereo not drawn) | 194 to 199
9 | O=C(O)CCCc1ccc(NS(=O)(=O)c2ccc(Br)cc2)cn1 | 188 to 190
10 | O=C(O)c1ccc(N2C(=O)c3cccc([N+](=O)[O-])c3C2=O)cc1 | > 300
11 | Cc1c(NC(=O)c2ccc(OCc3ccccc3)cc2)ccc2cc(CN3CCCC3)cnc12 | 177 to 178
12 | CC(=O)N(c1nc2cc3nc(N(C(C)=O)N4CCN(C)CC4)sc3cc2s1)N1CCN(C)CC1 | 256 to 258
13 | CCCCc1nnc(C(=O)N(C)Cc2ccccc2)n1Cc1ccc(-c2ccccc2C#N)cc1 | > 40
14 | CC(C)=C1C(=O)Nc2cc3[nH]c(-c4ccncc4)nc3cc21 | > 300
15 | CC(C)C1COCc2nc3c(N)nc4ccccc4c3n21 (stereo not drawn) | 249 to 250
16 | CC(=O)C(=NNc1ccc(Oc2ccccc2)cc1)Sc1ccc(Cl)cc1 | 152 to 155
17 | NC(=O)C(CCc1ccccn1)(c1ccccc1)c1ccccc1 | 145 to 146
18 | COC(=O)OC[C@@H]1CC(c2ccc(-c3ccc(N4C[C@H](Cn5ccnn5)OC4=O)cc3F)cn2)=NO1 | 205
19 | CCOC(=O)c1csc(-c2ccc3cc(O)c(C45CC6CC(CC(C6)C4)C5)cc3c2)c1 | 199 to 200
20 | CC(C)(C(=O)O)c1ccc(C(=O)C2CC2)cc1 | 84 to 88
21 | COCCOc1ccc(-c2sc(N)c(C(=O)c3ccc(Cl)cc3)c2CN(C2CCCCC2)C2CCCCC2)cc1 | 162 to 164
22 | COC(=O)c1cc(N)ccc1OC(C)=O | 99 to 100
23 | CNC(=S)NCCCCc1nc[nH]c1C | 110 to 112
24 | CCCCCCCCc1c(C)nc2cc(C)nn2c1N | 169
25 | CN=C1SCN(Cc2ccccc2)C(=O)N1C | 93 to 95

Row | Compound | melting point [°C]
26 | CC(=O)Nc1nc(OS(=O)(=O)c2ccccc2)ncc1F | 142 to 143
27 | CCCCCCC1CCC2C(CCC3CC(=O)CCC32)C1 (stereo not drawn) | 49
28 | CC1(C)CC(=O)c2c(Sc3ncccn3)sc(-c3cc[nH]n3)c2C1 | 245
29 | c1ccc(CN2CCN(Cc3ccccc3)C(CCc3ccncc3)C2)cc1 (stereo not drawn) | 96 to 98
30 | COc1cc2c(c3c1OC(C)(C)C3)C(c1cccnc1)=NC(C)(C)C2 | 113 to 114
31 | N#CC(C(=O)Nc1ccccc1)C(=O)c1nn(-c2ccccc2)c2c1CSc1ccc(NC(=O)CN)cc1-2 (stereo not drawn) | 218 to 221
32 | Nc1c(F)c(F)[nH]c(=O)c1F | 199 to 201
33 | COC(=O)CC1NC(=O)c2ccccc21 (stereo not drawn) | 136 to 138
34 | O=C(N[C@H]1CC[C@H](CCN2CCC(c3cccc4c3CCO4)CC2)CC1)C(F)(F)F | 173
35 | CS(=O)(=O)c1ccc(-c2cc(C(=O)c3ccccc3)sc2N2CCOCC2)cc1 | 173
36 | ON=Cc1cc2c(cn1)[nH]c1ccccc12 | 157 to 159
37 | CN1CCC2(OCCO2)C2(CCCC2)C1=O | 84 to 85
38 | CCN1c2ncc(CCc3cccc(N)c3)cc2C(=O)N(C)c2cccnc21 | 129 to 131
39 | CN(C)C=Nc1c(-c2c(F)cc(F)cc2F)c(Cl)nc2ncnn12 | 188 to 190
40 | O=S(=O)(c1ccc(F)cc1)c1ccc(S)cc1 | 116
41 | C#CCn1c2ccccc2c2sccc(=O)c21 | 144
42 | Cn1ccnc1C1(CCCCc2ccc(NC(=O)c3ccccc3)cc2)c2ccccc2-c2ccccc21 | 146 to 148
43 | CC1=NCC2CN=C(c3ccccc3F)c3cc(Cl)ccc3N12 (stereo not drawn) | 142 to 144
44 | Oc1ccc(N2CCN(Cc3c[nH]c4ncccc34)CC2)cc1 | 197 to 200
45 | CCOC(=O)c1c(-c2ccccc2)c2ccc(Cl)cc2c(=O)n1C | 152 to 153
46 | CCOC(=O)C(=O)Nc1ccc(S(=O)(=O)NC(=O)C(=O)OCC)c(C(F)(F)F)c1 | 161 to 162
47 | CC1=CC(OC(=O)c2ccc([N+](=O)[O-])cc2Cl)C(O)C(C)(C)CC1=O (stereo not drawn) | 108 to 110
48 | Cc1c(Br)c2cnnc(Cl)c2n1Cc1ccccc1 | 138 to 140
49 | N#Cc1cnc2ccsc2c1Sc1ccc(Cl)cc1Cl | 126 to 128
50 | NC(=O)NN=C1c2ncc(Cl)cc2C=CC1Cl (stereo not drawn) | > 280

Row | Compound | melting point [°C]
51 | Cc1cc(Br)c(N)cc1Cl | 90
52 | O=C1COc2ccc(-c3cnn(CC(F)(F)F)c3-c3ccc(F)cc3)cc2N1 | 227
53 | CCOC(=O)C(Cc1ccc(C(C(N)=O)C(C)c2ccccc2N2CCCCC2)cc1)C(=O)OCC (stereo not drawn) | 123 to 125
54 | CCOc1nc(NCc2ccco2)nc(Nc2cccc(CN3CCOCC3)c2)n1 | 69 to 71
55 | Cc1noc(-c2ccc(CN3C(=O)C4(COc5cc6c(cc54)OCCO6)c4ccccc43)cc2)n1 (stereo not drawn) | 177 to 178
56 | NC(=O)c1coc(-c2cccc(C3=Nc4ccc(-n5cccc5)cc4NC(=O)C3)c2)n1 | 232 to 234
57 | Cn1cncc1C(O)(c1ccc(-c2ccc(Cl)cc2)cc1)c1ccc2c(c1)c(-c1cccc(Cl)c1)cc(=O)n2C (stereo not drawn) | 236
58 | CCOC(=O)Cc1cn(C)c2cc(C3CC3)nn2c1=O | 147 to 150
59 | O=C(O)Cc1ccc(O)c(OCc2ccccc2)c1 | 130 to 133
60 | CN(C)S(=O)(=O)c1cccc(NC(=O)c2cnn3c(C(F)(F)F)cc(-c4ccc(C(F)(F)F)cc4)nc23)c1 | 210
61 | O=C1c2cccc(Br)c2C(=O)N1CCCn1cncn1 | 113 to 115
62 | COC(=O)c1cc(C(=O)c2c(C)c(OC)c3ccccn23)ccc1NC(=O)NCC(=O)N(C)C | 228
63 | O=C(O)[C@@H]1C[C@H]2C[C@H](CCS(=O)(=O)O)CC[C@H]2CN1 (racemic) | 265
64 | CCC(=O)OCOC(=O)Oc1ccc([N+](=O)[O-])cc1 | 35 to 36
65 | c1ccc(COc2ccc(CCCCn3cncn3)cc2)cc1 | 68 to 69
66 | CCOc1nc2cccc(C(=O)O)c2n1Cc1ccc(-c2ccccc2)c(-c2nnn[nH]2)c1 | 183 to 185
67 | CC(C(=O)Nc1ccc(C(=O)O)cc1)c1ccc2c(c1)C(C)(C)CCC2(C)C (stereo not drawn) | 195 to 196
68 | CCOC(=O)CCC(=O)OCC(=O)c1ccc(Cl)cc1 | 50 to 51
69 | CC(Sc1cc(C(C)(C)C)c(O)c(C(C)(C)C)c1)C(=O)CC(C)(O)C(C)Sc1cc(C(C)(C)C)c(O)c(C(C)(C)C)c1 (stereo not drawn) | 123 to 128
70 | O=C(c1ccccn1)c1cnn2c(-c3cccnc3)ccnc12 | 216 to 218
71 | O=C(NCCN1CCCC1)c1ccc(OCc2ccc(-c3ccccc3)cc2)cc1 | 173 to 175
72 | O=c1[nH]c(CCl)c(I)c(=O)[nH]1 | 225
73 | CCOC(=O)COc1ccc(O)c(Cl)c1 | 80 to 82
74 | NC(N)=NC(=O)Cc1c(-c2ccccc2Cl)csc1-c1ccc(Oc2ccccc2)cc1 | 76 to 78
75 | CCc1ccc(S(=O)(=O)n2c(COC(C)(C)C(=O)O)cc3nc(Cl)ccc32)cc1 | 172

Row | Compound | melting point [°C]
76 | Nc1nc2cc(N)c(OC(F)(F)F)cc2s1 | 175
77 | COc1ccccc1-c1coc2c(O)c(O)ccc2c1=O | 220 to 222
78 | O=C1NN=C(C=Cc2ccc([N+](=O)[O-])cc2)CS1 | 231 to 240
79 | CSc1ccc(-c2cnn(Cc3ccccc3)c(=O)c2Br)cc1 | 115 to 118
80 | Cc1ccc2nc(CCl)[nH]c(=O)c2c1 | 263 to 265
81 | CCCc1c(O)ccc2c(C)c(CC(=O)OC)c(=O)oc12 | 160 to 162
82 | Cc1nc2cc3c(cc2c(=O)[nH]1)C(N(C)c1ccc(C(=O)NC(CCc2nnn[nH]2)C(=O)O)c(F)c1)CC3 (mixture of isomers) | 203 to 205
83 | CCOc1cc2ncc(C#N)c(Nc3ccc4c(C)cc(=O)oc4c3)c2cc1OCC | 282 to 284
84 | O=C(O)c1cccc2c1Cc1c-2[nH]c2ccc(I)cc12 | 251
85 | COC(=O)CC1CC(c2ccc(Cl)nc2)=NO1 (stereo not drawn) | 94 to 96
86 | CON=C(C(=O)NC1C(=O)N2C(C(=O)O)=C(CSc3nnnn3C)SCC12)c1csc(N)n1 (stereo not drawn) | 180
87 | CCCC[C@H](NC(=O)[C@H](CC(C)C)NC(=O)c1ccccc1F)C(=O)CSCc1ccco1 | 102 to 103
88 | CC(C)(C)C(=O)OC(COc1cccc2[nH]nnc12)CN1CCC(COc2ccccc2)CC1 (stereo not drawn) | 131 to 133
89 | CCOC(=O)C1=C(N)N=C(OCC)C(C(=O)OCC)C1c1cccc(C(=O)OCC)c1 (stereo not drawn) | 87
90 | CCOC(=O)CCCCn1c(=O)n(CCN2CCN(c3ccccc3OC)CC2)c(=O)c2sccc21 | 118 to 119
91 | CS(=O)(=O)N1CCN([C@@H](CNC(=O)c2ccc(OCc3ccc(F)cc3)cc2)C(=O)NO)CC1 | 194
92 | O=C(O)CCc1cnoc1-c1ccc(Cl)cc1Cl | 106 to 107
93 | Cc1cccc(Cl)c1NC(=O)Nc1cc(N[C@H]2CC[C@H](O[Si](C)(C)C(C)(C)C)CC2)ncn1 | 218 to 220
94 | O=C1c2cccc3cc4ccccc4c(c23)C(=O)N1CCNCCN1C(=O)c2cccc3cc4ccccc4c(c23)C1=O | 271
95 | CC(=O)C(=CN(C)C)c1ccc(N2CCC(c3ccccc3)CC2)cc1 | 93 to 100
96 | CCc1cc(C)cc(C)c1C1C(=O)N2CCN(OC)CCN2C1=O | 213 to 215
97 | COc1cccc(-c2cn3cc(-c4cccc(CO)c4F)ccc3n2)c1 | 143 to 144
98 | COc1cc2c(cc1OC(C)=O)C(=O)CCC2 | 118 to 120
